These results are taken from patent publication US4713371A, “Anthracycline derivatives and their use as cytostatics” (Hoechst Aktiengesellschaft, priority 1983, dated 1987).

Converted amounts (≈) assume the structure as drawn. Like-named read-outs stand apart in the source and are kept apart here.

Assay [1] concerns L1210 mouse leukemia cells. Put plainly: Proliferation assay (14C-thymidine incorporation) on L1210 leukemia cells. It counts as cell-based. Particulars: read-out: Proliferation test IC50. The method, then: (§1) The cytostatic activity of the compounds described in this text was determined on L1210 mouse leukemia cells. Specifically, the following test systems were used:
In this method, the extent to which the cells can incorporate radioactive DNA precursors (for example ^14 C-labeled thymidine) in vitro is determined after incubation of the cells with various concentrations of the test substance. Untreated L1210 cells are subjected to the same test conditions and serve as the control. The method is briefly described below:
L1210 cells in the exponential phase of growth (5×10^3 /ml in RPMI 1640) are incubated in a microtiter plate with various concentrations of the test substance for 72 hours (37° C., 5% CO2, 95% relative humidity). The controls comprise cells which are merely incubated with fresh medium. All determinations are carried out in quadruplicate. After 65 hours, 50 μl of ^14 C-thymidine (1.5 μCi/ml) are added in order to radiolabel the DNA in the cells. After incubation for 7 hours, the cells are filtered off with suction, the DNA is precipitated with 5% strength trichloroacetic acid and is then washed consecutively with water and methanol.
After drying at 50° C. and addition of 5 ml of scintillation liquid, the radioactivity incorporated in the DNA is measured.
The results are reported as the ratio of the scintillation count after incubation with the test substance as a percentage of the untreated control. The dose-activity curve is derived from the figures thus measured, and the IC50, i.e. the concentration which decreases the incorporation of radioactive thymidine by 50% compared with the control under the test conditions, is determined graphically. The IC50 figures for the compounds described in this text are summarized and compared with adriamycin (ADM) in Table 1.
Background: Uptake of a labelled nucleoside into DNA is a usual measure of proliferation.

The next assay relates to L1210 leukemia cells. The assay can be described thus: Formation of colonies of L1210 leukemia cells in soft agar. It counts as cell-based. To be noted: Mus musculus. The method, then: as §1
(b) Formation of colonies of L1210 leukemia cells in soft agar
This method is used to detect an effect of the test substance on the growth characteristics of the cells over several generations (with the cell cycle period being 10-12 hours, about 14 consecutive generations are observed in the 7-day test period).
In this test, substances having cytostatic effects bring about a reduction in the number of colonies found compared with an untreated control. Specifically, the test is carried out as follows:
500 leukemia cells per plate are incubated with various concentrations of the test substance at 37° C. for 1 hour. The cells are then washed twice with McCoy 5a medium and, after addition of 0.3% agar, are finally poured into Petri dishes. Controls are merely incubated with fresh medium. In some cases, in place of incubation for 1 hour, various concentrations of the test substance are mixed into the upper agar layer in order thus to achieve continuous exposure of the cells throughout the incubation time. After the agar has solidified, the plates are incubated in an incubator at 37° C. for 7 days (5% CO2, 95% relative humidity). Then the number of resulting colonies having a diameter of 60μ is counted. The results are reported as the number of colonies in the treated agar plates as a percentage of the untreated control. The IC50 is determined from the dose-activity curve thus obtained and serves as a measure of the action of the substance. The results for the compounds described in this text are summarized and compared with adriamycin in Table 1.

[2] abbreviates: 72 hours incubation, L1210 cells, 14C-thymidine incorporation.
Where [3] appears, read: 168 h, 7 days incubation (continuous exposure), soft agar, L1210, read-out: Colony formation test IC50, 7 days incubation.
Setting [4] is: 1 hour incubation, then washed, soft agar 7 days, L1210, read-out: Colony formation test IC50, 1 hour incubation.
Where [5] appears, read: L1210, 168 h, read-out: Colony formation test IC50, 7 days incubation.
[6] abbreviates: L1210, read-out: Colony formation test IC50, 1 hour incubation.

With `CCC1(O)CC(OC2CCC(OC3CCC(OC4CCC(O)C(C)O4)C(C)O3)C(C)O2)c2c(O)c3c(c(O)c2C1C(=O)OC)C(=O)c1cccc(O)c1C3=O` (stereo not shown) [Cytorhodin J], the IC50 in assay [1] (setting [2]) was 4400 ng/mL (≈ 5710 nM).
Consider `CCC1(O)CC(OC2CC(N(C)C)C(OC3CCC(OC4C=CC(=O)C(C)O4)C(C)O3)C(C)O2)c2c(O)c3c(c(O)c2C1OC1CC(N(C)C)C(OC2CCC(OC4CCC(O)C(C)O4)C(C)O2)C(C)O1)C(=O)c1cccc(O)c1C3=O` (stereo not shown) [Cytorhodin V], for which the IC50 turned out to be 2.9 ng/mL (≈ 2.51 nM) in assay [1] (setting [2]), 0.27 ng/mL (≈ 0.234 nM) in the assay on L1210 leukemia cells (setting [3]) and 2 ng/mL (≈ 1.73 nM) with L1210 leukemia cells (setting [4]).
In the case of `CCC1(O)CC(OC2CC(N(C)C)C(OC3CCC(OC4C=CC(=O)C(C)O4)C(C)O3)C(C)O2)c2c(O)c3c(c(O)c2C1OC1CC(N(C)C)C(OC2CCC(OC4C=CC(=O)C(C)O4)C(C)O2)C(C)O1)C(=O)c1cccc(O)c1C3=O` (stereo not shown) [Cytorhodin F], the IC50 in assay [1] (setting [2]) came to 2.4 ng/mL (≈ 2.09 nM); in the assay with L1210 leukemia cells (setting [3]), 28 ng/mL (≈ 24.4 nM); in the assay with L1210 leukemia cells (setting [4]) it was 42 ng/mL (≈ 36.5 nM).
The corresponding values for `CCC1(O)CCc2c(O)c3c(c(O)c2C1OC1CC(N(C)C)C(OC2CC(O)C(OC4CCC(O)C(C)O4)C(C)O2)C(C)O1)C(=O)c1cccc(O)c1C3=O` (stereo not shown) [Cytorhodin K] are 3.7 ng/mL (≈ 4.79 nM), 3 ng/mL (≈ 3.89 nM) and 31 ng/mL (≈ 40.2 nM).
The corresponding values for `COc1cccc2c1C(=O)c1c(O)c3c(c(O)c1C2=O)C[C@@](O)(C(=O)CO)C[C@@H]3O[C@H]1C[C@H](N)[C@H](O)[C@H](C)O1` [ADM, adriamycin, reference compound] are 6 ng/mL (≈ 11 nM), 22 ng/mL (≈ 40.5 nM) and 44 ng/mL (≈ 81 nM).
On to `CCC1(O)CC(OC2CC(N(C)C)C(OC3CC(O)C(OC4CCC(=O)C(C)O4)C(C)O3)C(C)O2)c2c(O)c3c(c(O)c2C1OC1CC(N(C)C)C(OC2CCC(OC4CCC(O)C(C)O4)C(C)O2)C(C)O1)C(=O)c1cccc(O)c1C3=O` (stereo not shown) [Cytorhodin B], for which the IC50 in assay [1] (setting [2]) stood at 2.8 ng/mL (≈ 2.39 nM); in the assay on L1210 leukemia cells (setting [3]), 3.4 ng/mL (≈ 2.9 nM); with L1210 leukemia cells (setting [4]), 1.2 ng/mL (≈ 1.02 nM).
The matching figures for `CCC1(O)CCc2c(O)c3c(c(O)c2C1OC1CC(N(C)C)C(OC2CC(O)C(O)C(C)O2)C(C)O1)C(=O)c1cccc(O)c1C3=O` (stereo not shown) [Cytorhodin M]: 280 ng/mL (≈ 426 nM), 160 ng/mL (≈ 243 nM) and 390 ng/mL (≈ 593 nM).
The matching figures for `CCC1(O)CCc2c(O)c3c(c(O)c2C1OC1CC(N(C)C)C(OC2CCC(OC4CCC(O)C(C)O4)C(C)O2)C(C)O1)C(=O)c1cccc(O)c1C3=O` (stereo not shown) [Cytorhodin E]: 25 ng/mL (≈ 33.1 nM), 1.4 ng/mL (≈ 1.85 nM) and 28 ng/mL (≈ 37 nM).
With `CCC1(O)CC(OC2CC(N(C)C)C(OC3CC(O)C(OC4CCC(=O)C(C)O4)C(C)O3)C(C)O2)c2c(O)c3c(c(O)c2C1OC1CC(N(C)C)C(OC2CCC(OC4C=CC(=O)C(C)O4)C(C)O2)C(C)O1)C(=O)c1cccc(O)c1C3=O` (stereo not shown) [Cytorhodin P], the IC50 in assay [1] (setting [2]) worked out at 2.6 ng/mL (≈ 2.23 nM); with L1210 leukemia cells (setting [3]) it was 0.32 ng/mL (≈ 0.274 nM); in the assay on L1210 leukemia cells (setting [4]) it was 2.8 ng/mL (≈ 2.4 nM).
As to `CCC1(O)CC(OC2CC(N(C)C)C(OC3CC4OC5CC(=O)C(C)OC5OC4C(C)O3)C(C)O2)c2c(O)c3c(c(O)c2C1OC1CC(N(C)C)C(OC2CCC(OC4C=CC(=O)C(C)O4)C(C)O2)C(C)O1)C(=O)c1cccc(O)c1C3=O` (stereo not shown) [Cytorhodin D], the IC50 was 0.28 ng/mL (≈ 0.24 nM) in assay [1] (L1210, 72 h); 3.7 ng/mL (≈ 3.18 nM) in the assay on L1210 leukemia cells (setting [5]); 2.8 ng/mL (≈ 2.4 nM) in the assay with L1210 leukemia cells (setting [6]).
As to `CCC1(O)CC(OC2CC(N(C)C)C(OC3CCC(OC4CCC(O)C(C)O4)C(C)O3)C(C)O2)c2c(O)c3c(c(O)c2C1OC1CC(N(C)C)C(OC2CCC(OC4CCC(O)C(C)O4)C(C)O2)C(C)O1)C(=O)c1cccc(O)c1C3=O` (stereo not shown) [Cytorhodin A], the IC50 amounted to 1.1 ng/mL (≈ 0.95 nM) in assay [1] (setting [2]), 3 ng/mL (≈ 2.59 nM) in the assay with L1210 leukemia cells (setting [3]) and 1.3 ng/mL (≈ 1.12 nM) in the assay with L1210 leukemia cells (setting [4]).
Take `CCC1(O)CC(OC2CC(N(C)C)C(OC3CC4OC5CC(=O)C(C)OC5OC4C(C)O3)C(C)O2)c2c(O)c3c(c(O)c2C1OC1CC(N(C)C)C(OC2CC4OC5CC(=O)C(C)OC5OC4C(C)O2)C(C)O1)C(=O)c1cccc(O)c1C3=O` (stereo not shown) [Cytorhodin C]: the IC50 worked out at 0.55 ng/mL (≈ 0.466 nM) in assay [1] (L1210, 72 h); 0.15 ng/mL (≈ 0.127 nM) in the assay on L1210 leukemia cells (setting [5]); 3.4 ng/mL (≈ 2.88 nM) in the assay on L1210 leukemia cells (setting [6]).
Consider `CCC1(O)CCc2c(O)c3c(c(O)c2C1OC1CC(N(C)C)C(OC2CCC(O)C(C)O2)C(C)O1)C(=O)c1cccc(O)c1C3=O` (stereo not shown) [Cytorhodin L], for which the IC50 in assay [1] (setting [2]) was 300 ng/mL (≈ 467 nM); in the assay on L1210 leukemia cells (setting [3]), 210 ng/mL (≈ 327 nM); in the assay on L1210 leukemia cells (setting [4]), 1750 ng/mL (≈ 2730 nM).
